{
  "source": "patent US20100144763A1",
  "about": "“Pharmaceutical composition for inhibiting topoisomerase I and method for exploiting drug” (priority 2008, published 2010)",
  "key": {"[1]": {"tested_on": "human breast MCF-7 carcinoma cells", "assay": "MTT assay, cell growth inhibition / cytotoxicity", "assay_type": "cell-based", "settings": "MCF7, 24 h, read-out: IC50, cytotoxicity", "protocol": "Example 1 relates to cell growth inhibition of EVO according to the present invention. Breast cancer MCF-7 cells are cultured in Dulbecco's modified Eagle medium (DMEM) supplemented with 10% heat-inactivated fetal bovine serum (FBS), and 100 μg/ml penicillin-streptomycin. Conditions were maintained in a humidified 95% air/5% CO2 incubator at 37° C. The MTT [3-(4,5-dimethylthiazol-2-yl)-2,5-diphenyl tetrazolium bromide] assay was described previously to test the cytotoxicity of reagents and cell viability (Lin, Tsai, Chen, Chang, Lee et al., 2008). Cells (5000 cells/well) are grown on a 96-well plate supplemented with DMEM medium (with 1% FBS) for 24 hours. Then, cells are treated with CPT or EVO ([…]), and the viability is determined by the reduction of MTT. An MTT stock solution (5 mg of MTT/ml of PBS) is added to the growing cultures (at a final concentration of 0.5 mg/ml). The OD is measured with a spectrophotometer at 560 nm. A blank with DMSO alone is measured and subtracted from all values.\nThe cytotoxic abilities of EVO and CPT are tested against human breast MCF-7 carcinoma cells, which express high levels of TopoI. CPT is used as a reference drug. Both compounds display efficient cytotoxicity after 24 h of drug exposure. […] Consequently, EVO is slightly less cytotoxic than CPT against breast MCF-7 carcinoma cells."}, "[2]": {"biological_target": "T1, DNA TopoI from the vaccinia virus (Vaccinia virus, UniProt P68698)", "T1 construct": "purchased EPICENTRE Biotechnologies, Madison, Wis", "assay_type": "biochemical"}, "[3]": {"biological_target": "T2, purified recombinant eukaryotic TopoI (Homo sapiens, UniProt P11387)", "T2 sequence (P11387 1-765)": "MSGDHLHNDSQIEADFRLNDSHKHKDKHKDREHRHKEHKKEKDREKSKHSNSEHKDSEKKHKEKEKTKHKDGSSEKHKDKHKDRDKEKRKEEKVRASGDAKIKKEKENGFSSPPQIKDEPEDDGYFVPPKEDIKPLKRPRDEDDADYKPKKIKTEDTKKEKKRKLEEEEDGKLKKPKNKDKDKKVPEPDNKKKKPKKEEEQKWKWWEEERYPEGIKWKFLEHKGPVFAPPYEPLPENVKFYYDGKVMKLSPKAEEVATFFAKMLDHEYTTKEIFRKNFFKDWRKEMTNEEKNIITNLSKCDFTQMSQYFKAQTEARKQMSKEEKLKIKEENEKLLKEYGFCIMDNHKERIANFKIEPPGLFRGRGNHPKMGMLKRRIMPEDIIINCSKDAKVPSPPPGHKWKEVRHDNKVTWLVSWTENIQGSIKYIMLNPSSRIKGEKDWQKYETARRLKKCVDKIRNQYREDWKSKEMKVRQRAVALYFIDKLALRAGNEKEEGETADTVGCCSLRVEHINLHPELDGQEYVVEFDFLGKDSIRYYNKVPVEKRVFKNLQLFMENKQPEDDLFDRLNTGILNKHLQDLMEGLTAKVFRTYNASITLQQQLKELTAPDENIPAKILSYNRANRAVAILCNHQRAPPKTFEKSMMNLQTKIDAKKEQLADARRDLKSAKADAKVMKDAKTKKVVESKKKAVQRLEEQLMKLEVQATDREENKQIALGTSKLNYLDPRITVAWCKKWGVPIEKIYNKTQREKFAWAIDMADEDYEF", "assay_type": "biochemical", "settings": "supercoiled DNA relaxation, TopoI prepared from recombinant DNA"}, "[4]": {"biological_target": "T3, free-form TopoI in MCF-7 cells (Homo sapiens, UniProt P11387)", "T3 construct": "endogenous in cells; host or cells: MCF-7", "T3 sequence (P11387 1-765)": "T2 sequence (P11387 1-765)", "assay": "depletion assay for free-form TopoI (immunoblotting)", "assay_type": "cell-based", "protocol": "Example 3 relates to detection of the levels of free-form TopoI from breast cancer cells reduced by EVO according to the present invention. Provided that EVO is able to fix TopoI on DNA, the level of free-form TopoI should be decreased. Monolayers that are breast cancer MCF-7 cells of 50%—80% confluent are treated with drugs for a short time, and then cellular proteins are extracted from the MCF-7 cells. After that, the cellular proteins are separated electrophoretically in a 7.5% SDS polyacrylamide gel and electro-transferred to a polyvinylidene difluoride (PVDF) membrane. The membrane is incubated with the primary antibody (rabbit anti-human topoisomerase I antisera) at room temperature for 2 hours, and then incubated with a horseradish peroxidase-conjugated secondary immunoglobulin G (IgG) antibody. The immunoreactive bands are visualized with enhanced chemiluminescent reagents and photographed using a gel documentation system.\nA depletion assay for free-form TopoI is performed to confirm the effect of EVO on DNA topological catalysis of TopoI. This assay is based on the ability of CPT to trap TopoI and DNA to form a CPT-TopoI-DNA triple complex, to see if EVO inhibits TopoI activity through a similar mechanism. […] Depletion of TopoI protein by EVO is also detected in a concentration-dependent manner after 1 hour of treatment. […]"}, "[5]": {"biological_target": "T4, TopoI-DNA complex in 3H-thymidine-labeled MCF-7 cells (Homo sapiens, UniProt P11387)", "T4 construct": "endogenous in cells; host or cells: MCF-7", "T4 sequence (P11387 1-765)": "T2 sequence (P11387 1-765)", "assay": "KCl/SDS precipitation assay, TopoI-DNA complex trapping", "assay_type": "cell-based", "settings": "30 μM, 60 minutes, FIG. 4", "protocol": "Example 4 relates to using a KCl/SDS precipitation assay to show TopoI-DNA complex trapping activity of EVO according to the present invention. The formation of a cleavable complex in intact cells is quantified by a KCl-sodium dodecylsulfate (SDS) precipitation technique, a modified procedure described previously by Yoshinari et al. (1993). Cellular DNA is labeled by adding ^3H-thymidine to the medium to a final concentration of 10 μCi/ml. After an overnight incubation, cells are plated to a density of 1×10^5 cells/well in a 24-well plate for another overnight incubation, and treated with various concentrations of EVO (0˜30 μM) for 60 minutes. The medium is removed from each well, and cells are washed with phosphate-buffered saline (PBS) and lysed with 1 ml of prewarmed (65° C.) lysis solution (1.25% SDS, 5 mM EDTA, 0.4 mg/ml salmon sperm DNA). Lysate is sheared using a 21-gauge needle. The samples as background control are treated by the above procedure but with proteinase K (400 μg/ml) in the lysis buffer, and are incubated at 50° C. for 2 hour. KCl (325 mM), at 250 μl, is added to each sample, vortexed vigorously, cooled on ice for 10 minutes, and centrifuged at 2500 rpm for 10 minutes at 4° C. […] The pellet is resuspended in 400 μl prewarmed H2O (65° C.) and combined with 4 ml scintillation liquid, and the radioactivity counts are determined using a liquid scintillation counter. […]"}},
  "data": [
    {"molecule": "CC[C@@]1(O)C(=O)OCc2c1cc1n(c2=O)Cc2cc3ccccc3nc2-1", "note": "[CPT, Camptothecin, reference compound]", "values": [
      {"measurement": "IC50", "setting": "[1]", "value": 3.23, "unit": "µM"},
      {"measurement": "inhibition of supercoiled plasmid DNA relaxation catalyzed by TopoI", "setting": "[2]", "value": "retain a greater amount of uncatalytic supercoiled DNA in a dose-dependent manner"}
    ]},
    {"molecule": "CN1c2ccccc2C(=O)N2CCc3c([nH]c4ccccc34)C21", "note": "(stereo not drawn) [EVO, Evodiamine]", "values": [
      {"measurement": "IC50", "setting": "[1]", "value": 6.02, "unit": "µM"},
      {"measurement": "inhibition activity toward purified recombinant eukaryotic TopoI", "setting": "[3]", "value": "inhibited"},
      {"measurement": "relative level of DNA-unlinked TopoI protein versus the control", "setting": "[4]; 0˜10 μM, 1 hour of treatment, FIG. 3B", "value": "< 40", "unit": "%"},
      {"measurement": "TopoI protein level in comparison to the untreated control", "setting": "[4]; 10 μM, 120-minute treatment, FIG. 3A", "value": "< 20", "unit": "%"},
      {"measurement": "3H-thymidine-labeled DNA trapped in a covalent complex with TopoI", "setting": "[5]", "value": 43.6, "unit": "%"},
      {"measurement": "inhibition of supercoiled plasmid DNA relaxation catalyzed by TopoI", "setting": "[2]", "value": "inhibitory activity on TopoI catalytic relaxation in a dose-dependent manner"}
    ]},
    {"molecule": "O=c1c2ccccc2nc2n1CCc1c-2[nH]c2ccccc12", "note": "[rutaecarpine]", "values": [
      {"measurement": "inhibitory activity on TopoI catalytic supercoiled plasmid relaxation, compared with CPT and EVO", "setting": "[2]", "value": "substantially equivalent to those of CPT and EVO"}
    ]}
  ]
}
